# Source: PMC7529580, “Modified heptapeptide from tau binds both tubulin and microtubules” (Thoracic Cancer, 2020)
# Entries after “also recorded” stand apart in the source; their conditions may differ. Where two headings read alike, the source gives them in different places. Non-standard residues stand in square brackets, D forms with d. No end group written: not given here. *: point of attachment. FITC = O=C1OC2(c3ccc(O)cc3Oc3cc(O)ccc32)c2ccc(NC(=S)*)cc21; Ahx = NCCCCCC(=O)O
# How the values were obtained:
# [1] = system: microtubules in living cells; details: cited from earlier work; for labeling of microtubules in living cells (in words): microtubule‐targeting agents
# Source text: The property of microtubules is regulated by a number of microtubule‐binding proteins, ^8 , ^9 , ^10 , ^11 , ^12 , ^13 of which tau is well‐characterized because of its abundance, particularly in brain tissues. ^14 , ^15 , ^16 The N‐terminus of tau is a projection domain, followed by a proline‐rich region and a C‐terminal microtubule‐assembly domain. ^17 The microtubule‐assembly domain, which contains four imperfect sequence repeats, is responsible for the binding of tau to microtubules. […] In this study, we tested another tau‐derived peptide for its ability to monitor microtubules.
# [2] = system: microtubules; set-up: method as in 2 sources, ref 26 = [26]; PMID 9190213; doi:10.1091/mbc.8.2.353; 26 Goode BL , Denis PE , Panda D et al Functional interactions between the proline‐rich and repeat regions of tau enhance microtubule binding and assembly . Mol Biol Cell 1997; 8 : 353 – 65 . 9190213 ||| ref 27 = [27]; PMID 19186939; doi:10.1021/bm801224q; 27 Cao B , Mao C . Identification of microtubule‐binding domains on microtubule‐associated proteins by major coat phage display technique . Biomacromolecules 2009; 10 : 555 – 64 . 19186939 10.1021/bm; details: cited from earlier work
# [3] = system: microtubules in HeLa cells; assay: Living cell assay: tracing of microtubules; type: cell-based; details: 15 μM peptide, 30 minutes, Hoechst 33258, fluorescence microscope
# Experimental: (§1) HeLa cells were cultured in Dulbecco's modified Eagle's medium supplemented with 10% fetal bovine serum and maintained at 37°C in a humidified 5% CO2 environment. The peptide was added into the Hela cells, and incubated for 30 minutes. The nuclei were stained with Hoechst 33258 (Beyotime). Cells were imaged with a fluorescence microscope (Leica, Germany).  Figure 4 Examination of the peptide in tracing microtubules in living cells. HeLa cells were treated with 15 μM of the peptide or control peptide, together with Hoechst 33258, and 30 minutes later, the cells were imaged with a fluorescence microscope. Scale bar: 5 μm.
# [4] = system: polymerized microtubules; assay: Labeling of polymerized microtubules in solution (fluorescence microscopy); type: binding; details: 1 μM peptide added to polymerized rhodamine‐labeled microtubules, five minutes incubation, fluorescence microscope
# Experimental: (§2) Tubulin from HeLa cells was purified using a TOG‐based affinity column. ^20 Briefly, cells were resuspended in an equal volume of BRB80 buffer containing 3 μL of benzonase and 1 mM DTT. Cells were lysed on ice and centrifuged at 40 000 rpm for 30 minutes at 4°C. The supernatant was filtered through a 0.45 μm Milliex‐HV polyvinylidene fluoride membrane, and then loaded into a TOG column preequilibrated with BRB80 buffer. The tubulin was eluted with BRB80 buffer, and the crude extract was further purified through the cycle of polymerization and depolymerization as previously described. ^22
# Rhodamine‐labeled tubulin (5%) was mixed into tubulin purified from HeLa cells in the PEMG buffer (100 mM PIPES, 1 mM EGTA, 1 mM MgSO4, 1 mM GTP, pH 6.8). Next, the mixture was placed on ice for five minutes and then incubated at 37°C for 30 minutes. The polymerized reaction was terminated by adding 400 μL of PEMG buffer. […] The pellet was resuspended with 300 μL of the PEMG buffer supplemented with 20 μM paclitaxel and then added into a slide chamber for imaging under a fluorescence microscope.
# Figure 3 The peptide was able to label the microtubules in solution. (a) The tubulin was purified from HeLa cells through cycle process, and the purity was determined by SDS‐PAGE. […] After five minutes incubation, the microtubule was imaged under a fluorescence microscope. […]
# [5] = system: HeLa cells; assay: Living cell assay: entry of peptide into cells; type: cell-based; details: 15 μM peptide, 30 minutes, Hoechst 33258, fluorescence microscope
# Experimental: as §1
# [6] = system: tubulin dimers; assay: Microscale thermophoresis affinity determination; type: binding; details: 1 μM peptide, series dilution of tubulin
# Experimental: All microscale thermophoresis measurements were performed using Monolith NTTM hydrophobic capillaries and a Monolith NT.115 instrument (NanoTemper) according to the manufacturer's instructions. The peptide was prepared with varying concentrations for pretest to ensure final proper concentration. The fluorescence intensity value should be more than 200. A series of dilution of the tubulin dimers was then added into the capillaries. The affinity of the peptide to tubulin dimers was examined using the Monolith NT.115 instrument.
# as §2
# Figure 2 Affinity determination of the peptide to tubulin. 1 μM of the peptide and a series dilution of tubulin were added into the capillary tube, and the fluorescence intensity was then determined by a Monolith NT.115 instrument.
# [7] = target: fluorescent tau-derived peptide (FITC-Ahx-(rR)3R2-GGG-KKVAVVR); assay: MST; 1 μM of the fluorescent peptide constant, a series dilution of tubulin dimers; Monolith NT.115, hydrophobic capillaries
compound,measurement,setting,value
"N=C(N)c1ccc(-c2cc3ccc(C(=N)N)cc3[nH]2)cc1 [4',6‐diamidino‐2‐phenylindole (DAPI), 4',6‐diamidino‐2‐phenylindole]",tracing microtubules in living cells (in words),[1]; due to the lack of specificity and the complexity of cellular contents,unable to trace microtubules in living cells
COc1cc2c(c(OC)c1OC)-c1ccc(OC)c(=O)cc1[C@@H](NC(C)=O)CC2 [colchicine],labeling of microtubules in living cells (in words),[1],able to label microtubules in living cells
CC(=O)O[C@H]1C(=O)[C@@]2(C)[C@H]([C@H](OC(=O)c3ccccc3)[C@]3(O)C[C@H](OC(=O)[C@H](O)[C@@H](NC(=O)c4ccccc4)c4ccccc4)C(C)=C1C3(C)C)[C@]1(OC(C)=O)CO[C@@H]1C[C@@H]2O [taxol],labeling of microtubules in living cells (in words),[1],able to label microtubules in living cells
KKVAVVR,microtubule binding (in words),[2]; small sequence within the proline‐rich region of tau,critical for efficient microtubule binding
KKVAVVRTPP,microtubule binding (in words),[2]; peptide with VxxVxxP motif,able to bind microtubules
"tau‐derived peptide: FITC dye, cell‐penetrating peptide (rR)3R2, spacer (GGG), microtubule recognition unit (KKVAVVR), with aminohexanoic (Ahx) acid ({FITC-Ahx}-[dR]R[dR]R[dR]RRRGGGKKVAVVR)",tracing of microtubule filaments in living cells (in words),[3],no clear microtubule filaments were observed
same,labeling of microtubules in solution / binding to microtubules (in words),[4]; listed as modified heptapeptide from tau,binds microtubules specifically and noncovalently
same,labeling of microtubules in solution / binding to microtubules (in words),[4]; listed as the peptide,able to successfully label the microtubules in solution
same,entry into living cells (in words),[5],delivered successfully into HeLa cells
same,binding to tubulin dimers (in words),[6],specifically bound to tubulin
same,binding to tubulin dimers (in words),[6]; listed as the peptide,bound tubulin dimers in a dose‐dependent manner; also recorded: relatively low affinity
same,disassociation constant (Kd) of the peptide with tubulin,"[6]; Monolith NT.115, hydrophobic capillaries",4.68 ± 0.08 µM
tubulin dimers purified from HeLa cells (from UniProt P68363 1-451; P07437 1-444) (complex),Kd,[7],4.68 µM
